# Measured values taken from patent publication US8263596B2, “Kinase inhibitors and method of treating cancer” (University Health Network, priority 2010, dated 2012).
# Like-named read-outs stand apart in the source and are kept apart here.
# Legend:
# human PLK4 = biological target: T1, human PLK4 (Homo sapiens, UniProt O00444); test: PLK4 inhibition assay (indirect ELISA); format: biochemical
# T1 construct: amino terminal GST fusion of residues 1-391 of human PLK4; made in house; host or cells: E. coli
# T1 sequence (O00444 1-391): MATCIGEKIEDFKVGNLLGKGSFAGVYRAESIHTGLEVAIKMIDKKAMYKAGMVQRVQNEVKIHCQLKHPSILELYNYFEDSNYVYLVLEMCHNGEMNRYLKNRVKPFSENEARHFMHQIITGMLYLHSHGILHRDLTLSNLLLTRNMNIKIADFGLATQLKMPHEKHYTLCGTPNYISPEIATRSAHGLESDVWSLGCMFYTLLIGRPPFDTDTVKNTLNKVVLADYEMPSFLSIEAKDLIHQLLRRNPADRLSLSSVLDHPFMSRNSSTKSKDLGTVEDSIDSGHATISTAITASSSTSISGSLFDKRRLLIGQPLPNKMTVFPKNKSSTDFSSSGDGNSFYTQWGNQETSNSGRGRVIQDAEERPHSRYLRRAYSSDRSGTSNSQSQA
# Aurora B = Aurora B (Homo sapiens, UniProt Q96GD4); test: Aurora B inhibition assay (Z-Lyte); format: biochemical; details: read-out: IC50 Ranges Aurora B
# Aurora B, sequence (Q96GD4 whole entry): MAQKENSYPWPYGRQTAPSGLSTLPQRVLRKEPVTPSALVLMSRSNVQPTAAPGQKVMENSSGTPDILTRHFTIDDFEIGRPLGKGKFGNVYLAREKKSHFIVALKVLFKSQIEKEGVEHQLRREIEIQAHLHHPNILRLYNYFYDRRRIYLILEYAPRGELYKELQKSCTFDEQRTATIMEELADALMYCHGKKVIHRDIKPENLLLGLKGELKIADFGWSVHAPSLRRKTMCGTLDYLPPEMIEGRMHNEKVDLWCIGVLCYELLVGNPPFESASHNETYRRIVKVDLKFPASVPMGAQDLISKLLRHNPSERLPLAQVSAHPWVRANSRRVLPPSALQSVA
IC50 (human PLK4; read-out: IC50 Ranges PLK4),IC50 (Aurora B),Structure (SMILES),IC50 (human PLK4)
< 100 nM,< 100 nM,"CN1CCN(c2ccc(-c3n[nH]c4cc([C@@H]5C[C@@]56C(=O)Nc5ccc(Br)cc56)ccc34)cn2)CC1 (relative stereo) [Example A19, (1R*,2S*)-5′-bromo-2-(3-(6-(4-methylpiperazin-1-yl)pyridin-3-yl)-1H-indazol-6-yl)spiro[cyclopropane-1,3′-indolin]-2′-one]",–
100 to 1000 nM,100 to 1000 nM,"O=C1Nc2ccc(F)cc2[C@]12C[C@H]2c1ccc2c(I)n[nH]c2c1 (relative stereo) [Example A40, (1R*,2S*)-5′-fluoro-2-(3-iodo-1H-indazol-6-yl)spiro[cyclopropane-1,3′-indolin]-2′-one]",–
< 100 nM,< 100 nM,"COc1ccc2c(c1)[C@]1(C[C@H]1c1ccc3c(-c4ccc(N5CCN(C)CC5)cc4)n[nH]c3c1)C(=O)N2C (relative stereo) [Example A100, (1R*,2S*)-5′-methoxy-1′-methyl-2-(3-(4-(4-methylpiperazin-1-yl)phenyl)-1H-indazol-6-yl)spiro[cyclopropane-1,3′-indolin]-2′-one 2,2,2-trifluoroacetate]",–
< 100 nM,–,"COc1ccc2c(c1)[C@]1(C[C@H]1c1ccc3c(-c4ccc(N5CCC(O)CC5)cc4)n[nH]c3c1)C(=O)N2 (relative stereo) [Example A118, (1R*,2S*)-2-(3-(4-(4-hydroxypiperidin-1-yl)phenyl)-1H-indazol-6-yl)-5′-methoxyspiro[cyclopropane-1,3′-indolin]-2′-one 2,2,2-trifluoroacetate]",–
< 100 nM,< 100 nM,"COc1ccc2c(c1)[C@]1(C[C@H]1c1ccc3c(C#Cc4ccc(C=O)cc4)n[nH]c3c1)C(=O)N2 (relative stereo) [Example A137, 4-((6-((1R*,2S*)-5′-methoxy-2′-oxospiro[cyclopropane-1,3′-indoline]-2-yl)-1H-indazol-3-yl)ethynyl)benzaldehyde]",–
< 100 nM,< 100 nM,"COc1ccc2c(c1)[C@]1(C[C@H]1c1ccc3c(C#Cc4ccc(CN5CCOCC5)cc4)n[nH]c3c1)C(=O)N2 (relative stereo) [Example A138, (1R*,2S*)-5′-methoxy-2-(3-((4-(morpholinomethyl)phenyl)ethynyl)-1H-indazol-6-yl)spiro[cyclopropane-1,3′-indolin]-2′-one 2,2,2-trifluoroacetate]",–
< 100 nM,< 100 nM,"COc1ccc2c(c1)[C@]1(C[C@H]1c1ccc3c(-c4ccc(CN5CCOCC5)cc4)n[nH]c3c1)C(=O)N2 (relative stereo) [Example A139, (1R*,2S*)-5′-methoxy-2-(3-(4-(morpholinomethyl)phenyl)-1H-indazol-6-yl)spiro[cyclopropane-1,3′-indolin]-2′-one 2,2,2-trifluoroacetate]",–
< 100 nM,< 100 nM,"COc1ccc2c(c1)[C@]1(C[C@H]1c1ccc3c(-c4ccc(CN5CCN(C)CC5)cc4)n[nH]c3c1)C(=O)N2 (relative stereo) [Example A140, (1R*,2S*)-5′-methoxy-2-(3-(4-((4-methylpiperazin-1-yl)methyl)phenyl)-1H-indazol-6-yl)spiro[cyclopropane-1,3′-indolin]-2′-one bis-2,2,2-trifluoro acetate]",–
100 to 1000 nM,–,"O=C1Nc2ccccc2[C@]12C[C@H]2c1ccc2c(-c3cccc(CN4CCOCC4)c3)n[nH]c2c1 (relative stereo) [Example A153, (1R*,2S*)-2-(3-(3-(morpholinomethyl)phenyl)-1H-indazol-6-yl)spiro [cyclopropane-1,3′-indolin]-2′-one 2,2,2-trifluoroacetate]",–
< 100 nM,100 to 1000 nM,"CN1CCN(Cc2ccc(-c3n[nH]c4cc([C@@H]5C[C@@]56C(=O)Nc5ccccc56)ccc34)cc2)CC1 (relative stereo) [Example A155, (1R*,2S*)-2-(3-(4-((4-methylpiperazin-1-yl)methyl)phenyl)-1H-indazol-6-yl)spiro[cyclopropane-1,3′-indolin]-2′-one bis-2,2,2-trifluoroacetate]",–
< 100 nM,< 100 nM,"CN(C)Cc1cccc(/C=C/c2n[nH]c3cc([C@@H]4C[C@@]45C(=O)Nc4ccccc45)ccc23)c1 (relative stereo) [Example A162, (1R*,2S*)-(E)-2-(3-(3-((dimethylamino)methyl)styryl)-1H-indazol-6-yl) spiro[cyclopropane-1,3′-indolin]-2′-one 2,2,2-trifluoroacetate]",–
< 100 nM,< 100 nM,"NC(=O)CN1C(=O)[C@@]2(C[C@H]2c2ccc3c(/C=C/c4ccc(CN5CCCCC5)cc4)n[nH]c3c2)c2ccccc21 (relative stereo) [Example A165, 2-((1R*,2S*)-(E)-2′-oxo-2-(3-(4-(piperidin-1-ylmethyl)styryl)-1H-indazol-6-yl)spiro[cyclopropane-1,3′-indoline]-1′-yl)acetamide 2,2,2-trifluoroacetate]",–
< 100 nM,100 to 1000 nM,"CC(C)CCN1C(=O)[C@@]2(C[C@H]2c2ccc3c(/C=C/c4ccc(CN(C)C)cc4)n[nH]c3c2)c2ccccc21 (relative stereo) [Example A176, (1R*,2S*)-(E)-2-(3-(4-((dimethylamino)methyl)styryl)-1H-indazol-6-yl)-1′-isopentylspiro[cyclopropane-1,3′-indolin]-2′-one]",–
–,< 100 nM,"CN1CCN(c2ccc(-c3n[nH]c4cc([C@@H]5C[C@@]56C(=O)Nc5ccc(F)cc56)ccc34)cn2)CC1 (relative stereo) [Example A210, (1R*,2S*)-5′-fluoro-2-(3-(6-(4-methylpiperazine-1-yl)pyridine-3-yl)-1H-indazol-6-yl)-spiro[cyclopropane-1,3′-indolin]-2′-one]",–

# Second part, the molecule before the results:
Structure (SMILES),IC50 (human PLK4; read-out: IC50 Ranges PLK4),IC50 (Aurora B),IC50 (human PLK4)
"O=C1Nc2ncc(Br)cc2[C@]12C[C@H]2c1ccc2cn[nH]c2c1 (racemic) [Example A12, (1R*,2S*)-5′-bromo-2-(1H-indazol-6-yl)spiro[cyclopropane-1,3′-pyrrolo[2,3-b]pyridin]-2′(1′H)-one]",100 to 1000 nM,–,–
"COc1ccc2c(c1)[C@]1(C[C@@H]1c1ccc3c(-c4ccc(N5CCN(C)CC5)nc4)n[nH]c3c1)C(=O)N2 (relative stereo) [Example A17, (1R*,2R*)-5′-Methoxy-2-(3-(6-(4-methylpiperazin-1-yl)pyridin-3-yl)-1H-indazol-6-yl)spiro[cyclopropane-1,3′-indolin]-2′-one]",–,100 to 1000 nM,< 100 nM
"COc1ccc2c(c1)[C@]1(C[C@H]1c1ccc3c(-c4ccc(N5CCC(N(C)C)CC5)cc4)n[nH]c3c1)C(=O)N2 (relative stereo) [Example A119, (1R*,2S*)-2-(3-(4-(4-(dimethylamino)piperidin-1-yl)phenyl)-1H-indazol-6-yl)-5′-methoxy spiro[cyclopropane-1,3′-indolin]-2′-one 2,2,2-trifluoroacetate]",< 100 nM,< 100 nM,–
"COc1ccc2c(c1)[C@]1(C[C@H]1c1ccc3c(C#Cc4ccc(CN5CCN(C)CC5)cc4)n[nH]c3c1)C(=O)N2 (relative stereo) [Example A145, (1R*,2S*)-5′-methoxy-2-(3-((4-((4-methylpiperazin-1-yl)methyl)phenyl)ethynyl)-1H-indazol-6-yl)spiro[cyclopropane-1,3′-indolin]-2′-one bis(2,2,2-trifluoroacetate)]",< 100 nM,100 to 1000 nM,–
"CN1CCN(C(=O)c2ccc(-c3n[nH]c4cc([C@@H]5C[C@@]56C(=O)Nc5ccccc56)ccc34)cc2)CC1 (relative stereo) [Example A156, (1R*,2S*)-2-(3-(4-(4-methylpiperazine-1-carbonyl)phenyl)-1H-indazol-6-yl)spiro[cyclopropane-1,3′-indolin]-2′-one 2,2,2-trifluoroacetate]",< 100 nM,100 to 1000 nM,–
"COc1cc2c(cc1OC)[C@]1(C[C@H]1c1ccc3c(/C=C/c4ccc(CN(C)C)cc4)n[nH]c3c1)C(=O)N2 (relative stereo) [Example A168, (1R*,2S*)-(E)-2-(3-(4-((dimethylamino)methyl)styryl)-1H-indazol-6-yl)-5′,6′-dimethoxyspiro[cyclopropane-1,3′-indolin]-2′-one 2,2,2-trifluoroacetate]",< 100 nM,< 100 nM,–
"COc1ccc2c(c1)[C@]1(C[C@H]1c1ccc3c(/C=C/c4ccc(N5CCNCC5)cc4)n[nH]c3c1)C(=O)N2 (relative stereo) [Example A182, (1R*,2S*)-5′-methoxy-2-(3-(4-(piperazin-1-yl)styryl)-1H-indazol-6-yl)spiro[cyclopropane-1,3′-indolin]-2′-one 2,2,2-trifluoroacetate]",< 100 nM,< 100 nM,–
"COc1ccc2c(c1)[C@]1(C[C@H]1c1ccc3c(/C=C/c4ccc(N5CCN(C(C)C)CC5)cc4)n[nH]c3c1)C(=O)N2 (relative stereo) [Example A189, (1R*,2S*)-(E)-2-(3-(4-(4-isopropylpiperazin-1-yl)styryl)-1H-indazol-6-yl)-5′-methoxyspiro[cyclopropane-1,3′-indolin]-2′-one 2,2,2-trifluoroacetate]",< 100 nM,< 100 nM,–
"CCN1Cc2ccc(/C=C/c3n[nH]c4cc([C@@H]5C[C@@]56C(=O)Nc5ccc(OC)cc56)ccc34)cc2C1 (relative stereo) [Example A190, (1R*,2S*)-2-(3-((E)-2-(2-ethylisoindolin-5-yl)vinyl)-1H-indazol-6-yl)-5′-methoxyspiro[cyclopropane-1,3′-indolin]-2′-one 2,2,2-trifluoroacetate]",< 100 nM,< 100 nM,–
